Results: the SangsterLogP compilation
Residues, ends and D or L forms follow the SMILES beside them. *: point of attachment. NHtBu = CC(C)(C)N*

Assay: not given
Conditions: not given
`Cc1nc(N2CCOCC2)c(C#N)cc1-c1ccccc1` gave a logP of 3.65. With `Cc1nc(Cl)c(C#N)cc1-c1ccccc1` the logP was 3.24. Compound `COc1ccc(-c2cc(C#N)c(N3CCOCC3)nc2C)cc1` has a logP of 4.4. With `COc1ccc(-c2cc(C#N)c(Cl)nc2C)cc1` the logP was 3.38.

Assay: not given
Conditions: not given
Remark: another data set of the same source
With `CC1c2nc3ccccc3c(=O)n2C(C)CN1C` (stereo not drawn) the logP was 0.44. In the case of `CCCN1CCn2c(nc3ccccc3c2=O)C1C` (stereo not drawn), the logP is reported as 1.07. Work on `CCN1CC(C)n2c(nc3ccccc3c2=O)C1C` (stereo not drawn) yielded a logP of 1.58. In the case of `CCCN1CC(C)n2c(nc3ccccc3c2=O)C1C` (stereo not drawn), the logP is reported as 1.45.

Assay: not given
Conditions: not given
Remark: another data set of the same source
Work on `O=C1CN=C(c2ccc(Br)cc2)c2cc(Br)ccc2N1` yielded a logP of 4.08. In the case of `O=C1CN=C(c2ccccc2Br)c2cc(Br)ccc2N1`, the logP is reported as 3.3. Work on `O=C1CN=C(c2cccc(Cl)c2)c2ccc(Br)cc2N1` yielded a logP of 3.63. `O=C1CN=C(c2ccc(Cl)cc2)c2cc(Br)ccc2N1` gave a logP of 3.78.

Assay: not given
Conditions: not given
Remark: another data set of the same source
Compound `CCc1onc(C)c1N=C1C=C(Nc2c(C)noc2CC)C(=O)c2ccccc21` has a logP of 2.71. `CCC1ON=C(C)C1N=C1C=C(OC)C(=O)c2ccccc21` (stereo not drawn) showed a logP of 2.43. `CCc1onc(C)c1N=C1C=C(O)C(=O)c2ccccc21` showed a logP of 2. With `CCCc1onc(C)c1N=C1C=C(O)C(=O)c2ccccc21` the logP was 2.52.

Assay: method code SF-AS, from PMID: 578762
Conditions: pH 5.9
`CCOC(=O)C=C1NC(=O)C(N2CCCCC2)S1` (stereo in doubt) showed a logD of 2.3.

Same assay, conditions: pH 7.4
`CCOC(=O)/C=C1\SC(N(CC)CC)C(=O)N1C` (stereo not drawn) showed a logD of 2.2. With `CCOC(=O)/C=C1/SC(N2CCCCC2)C(=O)N1CC` (stereo not drawn) the logD was 2.65. For `CCCN1C(=O)C(N2CCCCC2)S/C1=C\C(=O)OCC` (stereo not drawn), the logD was 2.93.

Assay: not given
Conditions: not given
Remark: another data set of the same source
`Clc1cccc(-c2ccccc2Cl)c1` showed a logP of 5.02. With `Clc1ccc(-c2c(Cl)ccc(Cl)c2Cl)c(Cl)c1` the logP was 6.31. Compound `Clc1cccc(-c2cccc(Cl)c2Cl)c1` has a logP of 5.57. For `Clc1ccccc1-c1cccc(Cl)c1Cl`, the logP was 5.31.

Assay: not given
Conditions: not given
Remark: another data set of the same source
In the case of `O=C(Oc1ccc([N+](=O)[O-])cc1)C1OC(O)C(O)C(O)C1O` (stereo not drawn), the logP is reported as -0.45. Compound `O=C(Oc1ccc(F)cc1)C1OC(O)C(O)C(O)C1O` (stereo not drawn) has a logP of -0.42. `O=C(Oc1ccc(Cl)cc1)C1OC(O)C(O)C(O)C1O` (stereo not drawn) gave a logP of 0.45. In the case of `O=C(Oc1ccc2ccccc2c1)C1OC(O)C(O)C(O)C1O` (stereo not drawn), the logP is reported as 1.39.

Assay: not given
Conditions: not given
Remark: another data set of the same source
Compound `CCCCOc1ccc(OCCCN2CCOCC2)cc1` has a logP of 3.56. `COc1ccc(CCN2CCC(Nc3nc4ccccc4n3Cc3ccc(F)cc3)CC2)cc1` gave a logP of 5.7. With `CNC1CCC(c2ccc(Cl)c(Cl)c2)c2ccccc21` (stereo not drawn) the logP was 4.3. In the case of `NS(=O)(=O)c1cc2c(cc1Cl)N=C(CSCc1ccccc1)NS2(=O)=O`, the logP is reported as 1.73.

Assay: not given
Conditions: not given
Remark: another data set of the same source
`CCOC(=O)C1=C(C)NC(C)=C(C(=O)OC)C1c1cccc([N+](=O)[O-])c1` (stereo not drawn) showed a logP of 2.88. `COC(=O)C1=C(C)NC(C)=C(C(=O)OC/C=C/c2ccccc2)C1c1cccc([N+](=O)[O-])c1` (stereo not drawn) gave a logP of 4.26. In the case of `CCOC(=O)C1=C(C)NC(C)=C(C(=O)OC)C1c1cccc(Cl)c1Cl` (stereo not drawn), the logP is reported as 3.65.

Assay: method code SF-AS, from DOI: 10.1039/p29900001191
Conditions: pH 12.0
`CCc1cc(-c2ccccc2)nnc1NCCN1CCOCC1` gave a logD of 2.53. `NC(=O)c1cc(-c2ccccc2)nnc1NCCN1CCOCC1` showed a logD of 1.86. Work on `c1ccc(-c2cc(-c3ccccc3)c(NCCN3CCOCC3)nn2)cc1` yielded a logD of 3.38. In the case of `Cc1cc(-c2ccccc2)nnc1NCCN1CCOCC1`, the logD is reported as 2.03.

Assay: method code SF-AS, from DOI: 10.1135/cccc19881862
Conditions: pH 3.4
Work on `O=C(O)C(OCc1ccc(Cl)cc1)c1ccccc1` (stereo not drawn) yielded a logD of 2.6.

Same assay, conditions: pH 3.5
`CC(CC(=O)O)CC(=O)c1ccc(-c2ccc(-c3ccccc3)cc2)cc1` (stereo not drawn) showed a logD of 3.82. `CC(CC(=O)c1ccc(-c2ccc(-c3ccccc3)cc2)cc1)C(=O)O` (stereo not drawn) gave a logD of 3.4. Work on `CC(CC(=O)c1ccc(-c2ccc(-c3ccc(F)cc3F)cc2)cc1)C(=O)O` (stereo not drawn) yielded a logD of 3.78.

Assay: method code SF-HPLC, from DOI: 10.1002/ps.2780310207
Conditions: not given
For `CCCC(Cn1cncn1)c1ccc(F)cc1` (stereo not drawn), the logP was 2.01. Work on `CC(C)(Cc1ccccn1)c1ccc(F)cc1` yielded a logP of 2.97. Compound `CCCC(Cc1ccccn1)c1ccc(F)cc1` (stereo not drawn) has a logP of 2.61. For `Fc1ccc(C2(Cn3cncn3)CC2)cc1`, the logP was 1.54.

Assay: method code SF-AS, from DOI: 10.1080/10826076.2011.619030
Conditions: not given
For `O=C(OCc1ccccc1)OC1C(CO)OC(n2ccc(=O)[nH]c2=O)C1OC(=O)OCc1ccccc1` (stereo not drawn), the logP was 2.96. With `CC1(C)OC2C(CO)OC(n3ccc(=O)[nH]c3=O)C2O1` (stereo not drawn) the logP was -0.47. Compound `CC1(C)OC2C(CO)OC(n3ccc(=O)n(C(=O)c4ccccc4)c3=O)C2O1` (stereo not drawn) has a logP of 0.95. With `CC1(C)OC2C(CO)OC(n3ccc(=O)n(Cc4ccccc4)c3=O)C2O1` (stereo not drawn) the logP was 1.82.

Assay: method code SF-GLC, from DOI: 10.1016/0048-3575(76)90072-9
Conditions: not given
`CCOC(=O)CN(C(=O)CCl)c1ccccc1CC` showed a logP of 2.57. Work on `CCOC(=O)CN(C(=O)CCl)c1c(CC)cccc1CC` yielded a logP of 3.17. For `CCOC(=O)CN(C(=O)CCl)c1ccccc1Cl`, the logP was 2.3. Work on `CCOC(=O)CN(C(=O)CCl)c1ccccc1OC` yielded a logP of 1.78.

Assay: method code SF, from DOI: 10.1097/00004424-199009001-00048
Conditions: pH 7.4
In the case of `COCC(=O)Nc1c(I)c(C(=O)NCC(O)CO)c(I)c(C(=O)N(C)CC(O)CO)c1I` (stereo not drawn), the logD is reported as -2.05. Compound `C[C@H](O)C(=O)Nc1c(I)c(C(=O)NC(CO)CO)c(I)c(C(=O)NC(CO)CO)c1I` has a logD of -2.42. For `O=C(NCCO)c1c(I)c(C(=O)NCCO)c(I)c(N(CC(O)CO)C(=O)C(O)CO)c1I` (stereo not drawn), the logD was -2.64. In the case of `O=C(NCC(O)CO)c1c(I)c(N(CCO)C(=O)CO)c(I)c(N(CCO)C(=O)CO)c1I` (stereo not drawn), the logD is reported as -2.55.

Assay: method code SF, from DOI: 10.1021/jm5019252, PMID: 25906180
Conditions: pH 7.4
For `CN(C(=O)Oc1ccc(O)c(C(=O)NCc2ccccc2)c1)c1ccccc1`, the logD was 4.19. Work on `CN(C(=O)Oc1ccc(O)c(C(=O)NCc2cccnc2)c1)c1ccccc1` yielded a logD of 2.95. `COC(=O)c1cc(OC(=O)N(C)c2ccccc2)ccc1O` showed a logD of 3.13. `COC(=O)c1cc(OC(=O)N(c2ccccc2)c2ccccc2)ccc1O` showed a logD of 4.46.

Assay: method code SF-AS, from DOI: 10.1021/jm00085a014, PMID: 1560439
Conditions: pH 7.4
Compound `CCc1[nH]c(=O)n(C(=O)c2ccccc2)c1C(=O)c1ccc(-n2ccnc2C)cc1` has a logD of 1.96. With `CCC(=O)n1c(C(=O)c2ccc(-n3ccnc3C)cc2)c(CC)[nH]c1=O` the logD was 1.72. With `CCc1[nH]c(=O)[nH]c1C(=O)c1ccc(-n2ccnc2C)cc1` the logD was 0.85. `CCc1[nH]c(=O)n(C(C)=O)c1C(=O)c1ccc(-n2ccnc2C)cc1` gave a logD of 1.42.

Assay: method code SF-RC, from DOI: 10.1021/jm00238a003, PMID: 1120999
Conditions: pH 7.0
With `CCCCCCCC(=O)OC[C@H]1O[C@@H](n2ccc(N)nc2=O)[C@@H](O)[C@@H]1O` the logD was 1.6. Compound `CC(C)(C)C(=O)OC[C@H]1O[C@@H](n2ccc(N)nc2=O)[C@@H](O)[C@@H]1O` has a logD of 0.1. `CC(C)C(=O)OCC1OC(n2ccc(N)nc2=O)C(O)C1O` (stereo not drawn) gave a logD of 0.3. Work on `Nc1ccn(C2OC(COC(=O)C3CCCCC3)C(O)C2O)c(=O)n1` (stereo not drawn) yielded a logD of 0.8.

Assay: method code SF-RC, from DOI: 10.1023/a:1015846100305, PMID: 1788157
Conditions: pH 7.3
Compound `CC(=O)N[C@@H](C)C(=O)N[C@@H](Cc1ccccc1)C(=O)N[C@@H](C)C(=O)NC(C)(C)C` (Ac-Ala-Phe-Ala-NHtBu) has a logD of 1.01. In the case of `CC(=O)N[C@@H](C)C(=O)N[C@@H](C)C(=O)N[C@@H](C)C(=O)NC(C)(C)C`, the logD is reported as -0.51. `CC(=O)NC(C)C(=O)NC(Cc1c[nH]cn1)C(=O)NC(C)C(=O)NC(C)(C)C` (stereo not drawn) (Ac-Ala-His-Ala-NHtBu; configuration not given here) gave a logD of -0.48. In the case of `CC(=O)NC(C)C(=O)N1CCCC1C(=O)NC(C)C(=O)NC(C)(C)C` (stereo not drawn) (Ac-Ala-Pro-Ala-NHtBu; configuration not given here), the logD is reported as -0.39.

Assay: method code SF-AS, from DOI: 10.1016/j.ejmech.2015.02.036, PMID: 25728022
Conditions: pH 7.4
`CCCCn1c(C)nc2cc(Nc3nc(N4CCCC4)nc4[nH]cnc34)ccc21` gave a logD of 1.36. Compound `C=CCn1c(C)nc2cc(Nc3nc(N4CCCCC4)nc4[nH]cnc34)ccc21` has a logD of 1.55. In the case of `CCCCn1c(C)nc2cc(Nc3nc(Cl)nc4[nH]cnc34)ccc21`, the logD is reported as 1.28. `C=CCn1c(C)nc2cc(Nc3nc(N4CCCC4)nc4[nH]cnc34)ccc21` gave a logD of 2.53.

Assay: method code SF-RC, from DOI: 10.1016/s0969-8043(00)00269-4, PMID: 11200881
Conditions: pH 7.4
Work on `CCOC(=O)c1ncn2c1CN(C)C(=O)c1cc(F)ccc1-2` yielded a logD of 1.26. In the case of `CN1CCc2c(cc(O)c(O)c2Cl)C(c2ccccc2)C1` (stereo not drawn), the logD is reported as 1.4. `COc1ccc(C2CNC(=O)C2)cc1OC1CCCC1` (stereo not drawn) gave a logD of 2.17. `CN1CCc2cc(Cl)c(O)cc2[C@@H](c2ccccc2)C1` showed a logD of 2.87.
